Legend:
[1] = biological target: T1, AMPK-s1 (α subunit- D148A) (Rattus norvegicus, UniProt P54645+P80385, D159A); experiment: SPR analysis, AMPK mutant s1; type: binding
T1 construct: His (N); made in house
Procedure: Mammalian AMPK subunits (His-α1, β1, and γ1) were cloned into a pET-3d vector, and protein expression and purification were similar to the literature.
SPR analysis was performed with a Biacore T200 instrument (GE Healthcare). Firstly, the purred His-tagged AMPK containing α1β1γ1 protein was captured onto an activated carboxymethylated 5 (CM5) chip using amine coupling to levels ranging from 4000 RU to 6000 RU. Secondly, GENI was dissolved in PBS-P buffer solution (0.05% (v/v) Tween 20 and PBS), and the concentration of GENI was 64 μM. Thirdly, the solution of GENI was diluted to 32 μM, 16 μM, 8 μM, 4 μM, 2 μM, 1 μM and 0.5 μM with PBS-P buffer solution. The sample was filtered by pumping through a […] membrane. A gradient concentration of GENI was injected at a flow rate of 30 μL/min in a running buffer (0.05% (v/v) Tween 20 and PBS). The data were analyzed with Biacore evaluation software (T200 version 2.0) and fitted to the 1:1 Langmuir binding model, and the kinetic parameters were derived.
The non-covalent interaction between drugs and proteins is an important way to exert drug efficacy, and its mode of action and binding affinity usually determine the utilization and biological activity of drugs. AMPK is a heterotrimer complex consisting of an α subunit containing the kinase domain and two regulatory subunits (β- and γ-). […]

[2] = test system: D-gal-induced AD mice; experiment: Behaviour tests in D-gal-induced AD mice; type: in vivo
Procedure: Each group comprised 10 mice. […] Dosing lasted for 10 weeks. […] The mice were sacrificed after 10 weeks of administration.
The Y-maze is mainly used to study the spatial working memory ability of rodents. The Y-maze consisted of three equal-length arms (50 cm × 18 cm × 35 cm), and the angle between each two arms was 120 degrees. The mice were placed at the end of any arm of the Y-maze and allowed to explore freely for 8 min. The behavioral changes including the total number of entries and alternation (successively entering all three arms of the Y-maze once in turn) were recorded. Percentage altercation = alternation/(entries-2) × 100%. The Y-maze could effectively reflect the ability of animals to recognize and remember novel environments.
NOR was used to detect memory in rodents. We prepared a 40 × 40 × 40 cm square box, camera equipment, and behavioral analysis software. We chose three objects A, B, and C, where objects A and B were exactly the same, and object C was very different from objects A and B. After the start of the experiment, the mice were allowed to acclimate freely in the experimental apparatus for 10 min. Objects A and B were placed into the box, and the mice were allowed to explore for 5 min. We then recorded the exploration time and times. After 1 h, A and C or B and C were placed into the box. After letting the mice explore for 5 min, we recorded the exploration time of the original object and the new object. Discrimination index = exploration time of new objects/total exploration time × 100%.
The MWM installation consisted of a circular pool (120 cm in diameter and 50 cm in height), camera equipment, and a computer analysis system. In the first stage, the platform position was fixed, and mice were placed into the pool from any three of the four origins on the pool facing away from the pool wall. The time when it took for the mouse to find the platform within 120 s, called escape latency, was recorded. The training period lasted 4 days. The escape latency of the mice was recorded daily, and the average value was used as an index to evaluate the ability of learning and memory. On the 5th day, the platform was evacuated by the experimenter. The mice were placed against the platform into the water from any water entry point, and they were allowed to swim freely for 60 s. We then recorded the number of times that they crossed the platform.
The rationale for the three-box social test is based on the fact that mice are naturally gregarious and tend to explore new objects. The experimental device consisted of three rectangular boxes, each with a size of 19×45 cm, with a channel in the middle to allow the three boxes to connect with one another. Two metal cages of the same size were placed in the centre of the left and right boxes. Firstly, the mice were placed in the box for 10 min. Secondly, stranger 1 mouse was randomly placed in the metal cage in the left or right box, and the metal cage in the other box was empty. The experimental mice were placed in the box for 10 min. The number and duration of direct contact between the experimental mice and stranger 1 were recorded. Thirdly, strange 2 mice were placed in the empty metal cage of the second stage experiment and then recorded for 10 min. We observed the time and number of contacts between stranger 1 and stranger 2 and calculated the social preference and sociability index.

[3] = GENI administration group compared with the D-gal model group

T1 sequence (P54645 13-559 D159A limits assumed): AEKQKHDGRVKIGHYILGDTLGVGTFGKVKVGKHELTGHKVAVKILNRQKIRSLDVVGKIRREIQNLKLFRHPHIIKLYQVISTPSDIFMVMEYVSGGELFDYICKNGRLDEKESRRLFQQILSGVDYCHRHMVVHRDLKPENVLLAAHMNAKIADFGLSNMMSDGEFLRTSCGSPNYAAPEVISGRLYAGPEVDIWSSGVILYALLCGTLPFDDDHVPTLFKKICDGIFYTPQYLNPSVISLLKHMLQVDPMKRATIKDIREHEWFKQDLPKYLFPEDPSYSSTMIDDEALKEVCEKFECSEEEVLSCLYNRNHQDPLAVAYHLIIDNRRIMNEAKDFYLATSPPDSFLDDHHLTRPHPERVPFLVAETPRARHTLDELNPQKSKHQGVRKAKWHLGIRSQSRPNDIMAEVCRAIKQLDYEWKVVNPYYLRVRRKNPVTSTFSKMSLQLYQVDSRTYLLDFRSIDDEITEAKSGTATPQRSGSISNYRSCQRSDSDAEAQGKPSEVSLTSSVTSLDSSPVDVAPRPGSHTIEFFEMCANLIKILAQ
T1 sequence (P80386 whole entry partner): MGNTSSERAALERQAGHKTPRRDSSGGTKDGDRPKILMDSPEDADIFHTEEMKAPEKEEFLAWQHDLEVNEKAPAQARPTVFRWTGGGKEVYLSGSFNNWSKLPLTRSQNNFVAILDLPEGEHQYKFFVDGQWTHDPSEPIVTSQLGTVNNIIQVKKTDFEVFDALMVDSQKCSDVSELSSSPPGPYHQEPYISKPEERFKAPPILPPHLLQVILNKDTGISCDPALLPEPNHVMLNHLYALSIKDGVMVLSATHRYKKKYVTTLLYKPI
T1 sequence (P80385 whole entry): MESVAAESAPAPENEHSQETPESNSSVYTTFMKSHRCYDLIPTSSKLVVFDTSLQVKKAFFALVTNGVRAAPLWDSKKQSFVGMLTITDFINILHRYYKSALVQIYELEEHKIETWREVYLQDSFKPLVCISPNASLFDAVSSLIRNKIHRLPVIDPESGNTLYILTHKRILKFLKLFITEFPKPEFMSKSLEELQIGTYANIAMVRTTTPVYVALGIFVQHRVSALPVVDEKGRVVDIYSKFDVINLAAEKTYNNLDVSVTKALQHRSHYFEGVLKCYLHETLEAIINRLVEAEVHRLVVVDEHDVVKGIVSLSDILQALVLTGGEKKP

CC(C)CCOC(=O)C1=CO[C@@H](O[C@@H]2O[C@H](CO)[C@@H](O)[C@H](O)[C@H]2O)C2C(CO)=CCC12 (some centres unmarked) [GENI, Geniposidic 4-isoamyl ester] was tested, and the “dose-dependent response in SPR” value ([1]; D148 replaced with A148) was “No significant dose-dependent response”, the kon ([1]; SPR, association rate, read-out: Ka) was 9360 M⁻¹ s⁻¹ and the “rate of alternating arms in the Y maze test” value ([2]; GENI 25 and 50 mg/kg i.g., versus D-gal group) was “significantly increase”. For the same compound, the “escape latency in the Morris water maze test” value [2, 3] was “significantly reduced”, the “number of crossing platforms in the Morris water maze test” value [2, 3] was “significantly increased” and the “cognitive index and object recognition index in the NOR experiment” value ([2]; GENI i.g., versus D-gal group) was “significantly increased”. The “sociability and social preferences (three-box social experiment)” value ([2]; GENI-administered groups) was “significant social skills and social preferences” and the “optimal dose for anti-AD effect” value ([2]; comparable to the effect of DON at a dose of 3 mg/kg) was 25 mg/kg.
